Reference: US20120015907A1, “Furopyridine compounds and uses thereof” (NOVARTIS AG, priority 2010, published 2012)

Assays:
[1] = test system: HCV replicon I389luc-ubi-neo/NS3-3'/ET in ET (Huh-lucubineo-ET) cells; assay: Replicon assay (Biological Example 2), luciferase read-out; type: cell-based; details: Hepatitis C virus, luciferase activity 48 hours after compound addition
How it was run: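 ET cells stably carry the replicon with adaptive mutations E1202G, […] and K1846T. Compound is added 24 h after plating at 0.1 nM–50 μM final (10-point, 3-fold dilutions) with 0.5% DMSO, and luciferase is read 48 h later. EC50 comes from a Hill-equation fit of % inhibition versus no-compound control.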

HCV polymerase = biological target: T1, HCV polymerase (Hepatitis C virus genotype 1b, UniProt Q9WMX2); assay: biochemical; details: polymerase assay of Biological Example 1; read-out: NS5B polymerase IC50
T1 construct: (His)6 (C)

Compound	IC50 [1] [µM]	IC50 (HCV polymerase) [µM]
CNC(=O)c1c(-c2ccc(C)cc2)oc2nc(N(C)S(C)(=O)=O)c(C3CC3)cc12 [Example 2.93, 5-cyclopropyl-N-methyl-6-(N-methylmethylsulfonamido)-2-p-tolylfuro[2,3-b]pyridine-3-carboxamide]	≤ 0.1	0.004
CNC(=O)c1c(-c2ccc(F)cc2)oc2nc(N(CCCC3CCCS3(=O)=O)S(C)(=O)=O)c(C3CC3)cc12 (racemic) [Example 24.4]	≤ 0.1	0.009
CCc1cc2c(C(=O)NC)c(-c3ccc(F)cc3)oc2nc1N(CCCCC(C)=O)S(C)(=O)=O [Example 22.92, 5-ethyl-2-(4-fluorophenyl)-N-methyl-6-(N-(5-oxohexyl)methylsulfonamido)furo[2,3-b]pyridine-3-carboxamide]	≤ 0.1	0.032
CNC(=O)c1c(-c2ccc(C)cc2)oc2nc(N(CC[C@H]3C[C@@H]3C(=O)O)S(C)(=O)=O)c(C3CC3)cc12 [Example 28.2, (1S,2R)-2-(2-(N-(5-cyclopropyl-3-(methylcarbamoyl)-2-p-tolylfuro[2,3-b]pyridin-6-yl)methylsulfonamido)ethyl) cyclopropanecarboxylic acid]	≤ 0.1	0.002
CCc1cc2c(C(=O)NC)c(-c3ccc(F)cc3)oc2nc1N(CCCC(C)=O)S(C)(=O)=O [Example 22.95, 5-ethyl-2-(4-fluorophenyl)-N-methyl-6-(N-(4-oxopentyl)methylsulfonamido)furo[2,3-b]pyridine-3-carboxamide]	≤ 0.1	0.04
CNC(=O)c1c(-c2ccc(F)cc2)oc2nc3c(cc12)CCCCCCN3S(C)(=O)=O [Example 36.4, 2-(4-Fluoro-phenyl)-11-methanesulfonyl-6,7,8,9,10,11-hexahydro-5H-1-oxa-11,12-diaza-cyclonona[f]indene-3-carboxylic acid methylamide]	≤ 0.1	0.005
CCc1ccc(-c2oc3nc(N(C)S(C)(=O)=O)c(C4CC4)cc3c2C(=O)NC)cc1 [Example 2.94, 5-cyclopropyl-2-(4-ethylphenyl)-N-methyl-6-(N-methylmethylsulfonamido)furo[2,3-b]pyridine-3-carboxamide]	≤ 0.1	0.003
CNC(=O)c1c(-c2ccc(F)cc2)oc2nc(N(C)S(C)(=O)=O)c(CCCCC(=O)O)cc12 [Example 4, 5-(2-(4-fluorophenyl)-3-(methylcarbamoyl)-6-(N-methylmethylsulfonamido)furo[2,3-b]pyridin-5-yl)pentanoic acid]	≥ 5	0.049
CNC(=O)c1c(-c2ccc(C)cc2)oc2nc(N(CCCCS(C)(=O)=O)S(C)(=O)=O)c(C3CC3)cc12 [Example 25.6, 5-cyclopropyl-N-methyl-6-(N-(4-(methylsulfonyl)butyl)methylsulfonamido)-2-p-tolylfuro[2,3-b]pyridine-3-carboxamide]	≤ 0.1	0.002
CNC(=O)c1c(-c2ccc(F)cc2)oc2nc(N(CCCC(=O)NS(C)(=O)=O)S(C)(=O)=O)c(I)cc12 [Example 18.96, 2-(4-fluorophenyl)-5-iodo-N-methyl-6-(N-(4-(methylsulfonamido)-4-oxobutyl)methylsulfonamido)furo[2,3-b]pyridine-3-carboxamide]	≥ 5	0.034
CNC(=O)c1c(-c2ccc(F)cc2)oc2nc3c(cc12)C(C)OCCN3S(C)(=O)=O (stereo not shown) [Example 36.2, 2-(4-Fluoro-phenyl)-9-methanesulfonyl-5-methyl-5,7,8,9-tetrahydro-1,6-dioxa-9,10-diaza-cyclohepta[f]indene-3-carboxylic acid methylamide]	≤ 0.1	0.035
